In patent US20240245677A1, “SELECTED COMPOUNDS FOR TARGETED DEGRADATION OF BRD9” (C4 THERAPEUTICS, INC., priority 2021, published 2024):
Where “and” joins values, the source holds several entries; their conditions need not be identical. Equal entries are not always repeated. Where two headings read alike, the source gives them in different places.

Assay: Pharmacokinetic study in male Sprague Dawley rats
Format: in vivo, rat
Details: for concentration at 0.033 h / concentration at 0.33 h / concentration at 1 h / concentration at 2 h / concentration at 4 h / concentration at 8 h / concentration at 24 h: male, Sprague Dawley
Method: The pharmacokinetic (PK) profile in plasma of Compound 1 was determined in male Sprague Dawley rats following single dose intravenous (IV) (2 mg/kg) and per os (PO) (10 mg/kg) administration. This study was performed under non-GLP conditions, and unless otherwise stated, all analytical reagents were at least standard laboratory reagent grade, and deionized water was prepared at the study site.
The characteristics of Compound 1 used in this study were as follows: molecular weight of base, 710.78; molecular weight of Compound 1 with salt, 824.81; purity on as is basis, 99.28%.
All animals were housed in cages with clean bedding and maintained and monitored for good health and at the discretion of the laboratory animal veterinarian. Certified rodent diet was provided, and water was available ad libitum. Environmental controls for the animal room were set to maintain a temperature of 22 to 25° C., humidity of 40-70% relative humidity, and a 12-hour light/12-hour dark cycle.
Normal healthy animals certified by the attending veterinarian were selected and acclimatized for a minimum of three days prior to initiation of the study. Animals were identified by body markings.
The rats were anaesthetized with a single dose of ketamine 50 mg/kg i.p. plus xylazine 6 mg/kg i.p. The right jugular was exposed, and a loose ligature was placed caudally, and the cranial end of the vein was ligated. A small incision was made between the ligatures into which a catheter (polyethylene 50 tubing with an internal diameter of 0.58 mm and outer diameter of 0.96 mm) was inserted. The catheter was secured in place by tying the loose ligature around the catheterized vessel. A small incision was made in the scapular region to serve as the exit site of the catheter. The catheter was subcutaneously tunneled and exteriorized through the scapular incision. A stay suture was placed in the scapular area. Patency was tested, and the catheter was filled with a locking solution (heparinized saline) and sealed with a stainless-steel plug. The incision was then sutured with sterile suturing material. Anti-septic solution was applied to the sutured site and the animal was placed back in its home cage. The animals were closely observed throughout the recovery period of 24 hours. The rats were freely moving in the cage (one rat per cage).
Test animals were weighed prior to drug administration, and the standard weight of the animals used was 190 grams. The animals were divided into two groups, IV group and PO group, with each group containing 3 test animals each and 2 spare animals. The IV dose was administered by intravenous injection into the tail vein and PO dose was administered via oral gavage needle. The dosing volume was 5 mL/kg body weight for both groups. The dosing concentration was 0.4 mg/mL for the IV group and 2 mg/mL for the PO group. The animals were in fasted state during the study.
For both dosing groups, blood was collected from the jugular vein (serial sampling) for plasma isolation at 0.033, 0.33, 1, 2, 4, 6, 8, and 24 hour timepoints. The anti-coagulant solution used was 6% (v/v) sodium citrate (200 mM, pH 4.79).
For sample collection, the animals were held to remove the first two drops of blood from the cannula to ensure removal of any excess heparinized saline before collection of blood. The external catheter was connected to a syringe and 0.20-0.30 mL of blood was collected in the syringe and transferred to a pre-labeled, pre-chilled tube. Blood volume was replaced by administering to the animal an equal volume of saline through the jugular vein. After blood collection from each animal, the sample from that animal was recorded in the sample collection sheet.
After collection of each blood sample, the blood sample was stored on ice prior to centrifugation. Blood samples were centrifuged within 20 minutes of collection to separate plasma. Centrifugation was conducted at 2500×g for 15 minutes at 4° C. […]

[1] = rat, plasma, 2 mg/kg IV, Male Sprague Dawley Rats, mean
[2] = rat, plasma, 10 mg/kg PO, Male Sprague Dawley Rats, mean

Compound: COc1cc(-c2cn(C)c(=O)c(C)c2C)cc(OC)c1CN1CC[C@H](N2CCN(c3ccc(N[C@H]4CCC(=O)NC4=O)cc3F)CC2)C(F)(F)C1 [Compound 1, (S)-3-((4-(4-((S)-1-(2,6-dimethoxy-4-(1,4,5-trimethyl-6-oxo-1,6-dihydropyridin-3-yl)benzyl)-3,3-difluoropiperidin-4-yl)piperazin-1-yl)-3-fluorophenyl)amino)-piperidine-2,6-dione]
- Plasma Concentration, individual rats (2 mg/kg IV, 0.033 h): 827.34 ng/mL and 751.46 ng/mL
- Plasma Concentration, individual rats (2 mg/kg IV, 0.33 h): 387.61 ng/mL and 411.63 ng/mL
- Plasma Concentration, individual rats (2 mg/kg IV, 1 h): 253.11 ng/mL and 196.32 ng/mL
- Plasma Concentration, individual rats (2 mg/kg IV, 2 h): 175.63 ng/mL and 182.50 ng/mL
- Plasma Concentration, individual rats (2 mg/kg IV, 4 h): 82.15 ng/mL and 113.01 ng/mL
- Plasma Concentration, individual rats (2 mg/kg IV, 8 h): 66.27 ng/mL and 68.01 ng/mL
- Plasma Concentration, individual rats (2 mg/kg IV, 24 h): 2.51 ng/mL and 4.24 ng/mL
- CI (2 mg/kg IV, Male Sprague Dawley Rats, mean): 21.64 mL/min/kg
- concentration at 0.033 h (rat, plasma, intravenous, 2 mg/kg, 2 mg/kg IV, 0.033 h, read-out: Plasma Concentration, Average): 811 ng/mL
- concentration at 0.033 h (rat, plasma, intravenous, 2 mg/kg, 2 mg/kg IV, 0.033 h, read-out: Plasma Concentration, individual rats): 854 ng/mL
- concentration at 0.33 h (rat, plasma, intravenous, 2 mg/kg, 2 mg/kg IV, 0.33 h, read-out: Plasma Concentration, Average): 395 ng/mL
- concentration at 0.33 h (rat, plasma, intravenous, 2 mg/kg, 2 mg/kg IV, 0.33 h, read-out: Plasma Concentration, individual rats): 385 ng/mL
- concentration at 1 h (rat, plasma, intravenous, 2 mg/kg, 2 mg/kg IV, 1 h, read-out: Plasma Concentration, Average): 202 ng/mL
- concentration at 1 h (rat, plasma, intravenous, 2 mg/kg, 2 mg/kg IV, 1 h, read-out: Plasma Concentration, individual rats): 158 ng/mL
- concentration at 2 h (rat, plasma, intravenous, 2 mg/kg, 2 mg/kg IV, 2 h, read-out: Plasma Concentration, Average): 181 ng/mL
- concentration at 2 h (rat, plasma, intravenous, 2 mg/kg, 2 mg/kg IV, 2 h, read-out: Plasma Concentration, individual rats): 186 ng/mL
- concentration at 4 h (rat, plasma, intravenous, 2 mg/kg, 2 mg/kg IV, 4 h, read-out: Plasma Concentration, Average): 107 ng/mL
- concentration at 4 h (rat, plasma, intravenous, 2 mg/kg, 2 mg/kg IV, 4 h, read-out: Plasma Concentration, individual rats): 125 ng/mL
- concentration at 8 h (rat, plasma, intravenous, 2 mg/kg, 2 mg/kg IV, 8 h, read-out: Plasma Concentration, Average): 61.9 ng/mL
- concentration at 8 h (rat, plasma, intravenous, 2 mg/kg, 2 mg/kg IV, 8 h, read-out: Plasma Concentration, individual rats): 51.4 ng/mL
- concentration at 24 h (rat, plasma, intravenous, 2 mg/kg, 2 mg/kg IV, 24 h, read-out: Plasma Concentration, Average): 3.76 ng/mL
- concentration at 24 h (rat, plasma, intravenous, 2 mg/kg, 2 mg/kg IV, 24 h, read-out: Plasma Concentration, individual rats): 4.54 ng/mL
- concentration at 0.033 h (rat, plasma, oral, 10 mg/kg, 10 mg/kg PO, Male Sprague Dawley Rats, 0.033 h, Rat-1, read-out: Plasma Concentration (ng/mL) Rat-1): 2.98 ng/mL
- concentration at 0.033 h (rat, plasma, oral, 10 mg/kg, 10 mg/kg PO, Male Sprague Dawley Rats, 0.033 h, Rat-2, read-out: Plasma Concentration (ng/mL) Rat-2): 16.4 ng/mL
- concentration at 0.033 h (rat, plasma, oral, 10 mg/kg, 10 mg/kg PO, Male Sprague Dawley Rats, 0.033 h, Rat-3, read-out: Plasma Concentration (ng/mL) Rat-3): 1.81 ng/mL
- concentration at 0.033 h (rat, plasma, oral, 10 mg/kg, 10 mg/kg PO, Male Sprague Dawley Rats, 0.033 h, average, read-out: Plasma Concentration Average): 7.06 ng/mL
- concentration at 0.33 h (rat, plasma, oral, 10 mg/kg, 10 mg/kg PO, Male Sprague Dawley Rats, 0.33 h, Rat-1, read-out: Plasma Concentration (ng/mL) Rat-1): 215 ng/mL
- concentration at 0.33 h (rat, plasma, oral, 10 mg/kg, 10 mg/kg PO, Male Sprague Dawley Rats, 0.33 h, Rat-2, read-out: Plasma Concentration (ng/mL) Rat-2): 177 ng/mL
- concentration at 0.33 h (rat, plasma, oral, 10 mg/kg, 10 mg/kg PO, Male Sprague Dawley Rats, 0.33 h, Rat-3, read-out: Plasma Concentration (ng/mL) Rat-3): 350 ng/mL
- concentration at 0.33 h (rat, plasma, oral, 10 mg/kg, 10 mg/kg PO, Male Sprague Dawley Rats, 0.33 h, average, read-out: Plasma Concentration Average): 247 ng/mL
- concentration at 1 h (rat, plasma, oral, 10 mg/kg, 10 mg/kg PO, Male Sprague Dawley Rats, 1 h, Rat-1, read-out: Plasma Concentration (ng/mL) Rat-1): 648 ng/mL
- concentration at 1 h (rat, plasma, oral, 10 mg/kg, 10 mg/kg PO, Male Sprague Dawley Rats, 1 h, Rat-2, read-out: Plasma Concentration (ng/mL) Rat-2): 416 ng/mL
- concentration at 1 h (rat, plasma, oral, 10 mg/kg, 10 mg/kg PO, Male Sprague Dawley Rats, 1 h, Rat-3, read-out: Plasma Concentration (ng/mL) Rat-3): 729 ng/mL
- concentration at 1 h (rat, plasma, oral, 10 mg/kg, 10 mg/kg PO, Male Sprague Dawley Rats, 1 h, average, read-out: Plasma Concentration Average): 598 ng/mL
- concentration at 2 h (rat, plasma, oral, 10 mg/kg, 10 mg/kg PO, Male Sprague Dawley Rats, 2 h, Rat-1, read-out: Plasma Concentration (ng/mL) Rat-1): 560 ng/mL
- concentration at 2 h (rat, plasma, oral, 10 mg/kg, 10 mg/kg PO, Male Sprague Dawley Rats, 2 h, Rat-2, read-out: Plasma Concentration (ng/mL) Rat-2): 864 ng/mL
- concentration at 2 h (rat, plasma, oral, 10 mg/kg, 10 mg/kg PO, Male Sprague Dawley Rats, 2 h, Rat-3, read-out: Plasma Concentration (ng/mL) Rat-3): 594 ng/mL
- concentration at 2 h (rat, plasma, oral, 10 mg/kg, 10 mg/kg PO, Male Sprague Dawley Rats, 2 h, average, read-out: Plasma Concentration Average): 673 ng/mL
- concentration at 4 h (rat, plasma, oral, 10 mg/kg, 10 mg/kg PO, Male Sprague Dawley Rats, 4 h, Rat-1, *Outlier: Aberrant value, read-out: Plasma Concentration (ng/mL) Rat-1): 227 ng/mL
- concentration at 4 h (rat, plasma, oral, 10 mg/kg, 10 mg/kg PO, Male Sprague Dawley Rats, 4 h, Rat-2, read-out: Plasma Concentration (ng/mL) Rat-2): 593 ng/mL
- concentration at 4 h (rat, plasma, oral, 10 mg/kg, 10 mg/kg PO, Male Sprague Dawley Rats, 4 h, Rat-3, read-out: Plasma Concentration (ng/mL) Rat-3): 420 ng/mL
- concentration at 4 h (rat, plasma, oral, 10 mg/kg, 10 mg/kg PO, Male Sprague Dawley Rats, 4 h, average, read-out: Plasma Concentration Average): 506 ng/mL
- concentration at 8 h (rat, plasma, oral, 10 mg/kg, 10 mg/kg PO, Male Sprague Dawley Rats, 8 h, Rat-1, read-out: Plasma Concentration (ng/mL) Rat-1): 304 ng/mL
- concentration at 8 h (rat, plasma, oral, 10 mg/kg, 10 mg/kg PO, Male Sprague Dawley Rats, 8 h, Rat-2, read-out: Plasma Concentration (ng/mL) Rat-2): 527 ng/mL
- concentration at 8 h (rat, plasma, oral, 10 mg/kg, 10 mg/kg PO, Male Sprague Dawley Rats, 8 h, Rat-3, read-out: Plasma Concentration (ng/mL) Rat-3): 370 ng/mL
- concentration at 8 h (rat, plasma, oral, 10 mg/kg, 10 mg/kg PO, Male Sprague Dawley Rats, 8 h, average, read-out: Plasma Concentration Average): 400 ng/mL
- concentration at 24 h (rat, plasma, oral, 10 mg/kg, 10 mg/kg PO, Male Sprague Dawley Rats, 24 h, Rat-1, read-out: Plasma Concentration (ng/mL) Rat-1): 21.5 ng/mL
- concentration at 24 h (rat, plasma, oral, 10 mg/kg, 10 mg/kg PO, Male Sprague Dawley Rats, 24 h, Rat-2, read-out: Plasma Concentration (ng/mL) Rat-2): 49.3 ng/mL
- concentration at 24 h (rat, plasma, oral, 10 mg/kg, 10 mg/kg PO, Male Sprague Dawley Rats, 24 h, Rat-3, read-out: Plasma Concentration (ng/mL) Rat-3): 36.8 ng/mL
- concentration at 24 h (rat, plasma, oral, 10 mg/kg, 10 mg/kg PO, Male Sprague Dawley Rats, 24 h, average, read-out: Plasma Concentration Average): 35.8 ng/mL
- AUC(0-inf) [1]: 1540 ng·h/mL
- AUC(0-t) [1]: 1520 ng·h/mL
- C0 [1]: 879 ng/mL
- MRT last [1]: 4.82 h
- half-life [1]: 3.97 h
- Vd (rat, plasma, 2 mg/kg IV, Male Sprague Dawley Rats, mean, read-out: Vdss): 6.7 L/kg
- AUC(0-inf) [2]: 6560 ng·h/mL
- AUC(0-t) [2]: 6290 ng·h/mL
- Cmax [2]: 747 ng/mL
- MRT last [2]: 7.34 h
- Tmax [2]: 1.33 h
- bioavailability [2]: 82.8%
- half-life [2]: 5.12 h
